The record followed here is patent publication US12643871B2, “Aryl formamide compound containing chiral sulfur oxide or salt thereof, preparation method, herbicidal composition and use thereof” (Qingdao Kingagroot Chemical Compound Co., Ltd., priority 2019, dated 2026).

Common to all, as to test: Weeding effect in post-emergence stage
What all share (assay type): in vivo
Common to all, as to conditions: 250 g/ha; 2 leaf stage; 15 days after application; fresh weight control rate

The test system of one assay is Abutilon theophrasti. The gist of the method:
(§1)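 Pot-grown weeds sprayed post-emergence at the 2-leaf stage, 2 weeks after sowing, with compound in acetone/Tween 80 plus 1.5 L/ha methyl oleate concentrate at 500–15 g/ha. Fresh-weight growth control scored after 15 days in greenhouse, mean of three replicates, graded levels 0–5 (5: >85%, 0: <5%).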

The subject of a further assay is Amaranthus retroflexus. The gist of the method: as §1
The subject of a further assay is Digitaria sanguinalis. Summed up:
as §1

The test system of another assay is Echinochloa crusgali. The gist of the method:
as §1

The test system of the next assay is Setaria viridis. Summed up:
as §1

For `CC#CC[S@@+]([O-])c1c(C(F)(F)F)ccc(C(=O)Nc2nnc(C)o2)c1F` [Compound 25], the “weeding effect in post-emergence stage, activity level (growth control rate), Abutilon theophrasti” value (“weeding effect … Abutilon theophrasti” for short) in the assay with Abutilon theophrasti was 5 (Level 5: growth control rate is above 85%). Moreover, in the assay on Amaranthus retroflexus, the “weeding effect in post-emergence stage, activity level (growth control rate), Amaranthus retroflexus” value (from here on “weeding effect … Amaranthus retroflexus”) is on record as 5 (Level 5: growth control rate is above 85%). The “weeding effect in post-emergence stage, activity level (growth control rate), Digitaria sanguinalis” value (“weeding effect … Digitaria sanguinalis” below) in the assay with Digitaria sanguinalis is recorded as 5 (Level 5: growth control rate is above 85%). Also, the “weeding effect in post-emergence stage, activity level (growth control rate), Echinochloa crusgali” value (from here on “weeding effect … Echinochloa crusgali”) in the assay with Echinochloa crusgali was 5 (Level 5: growth control rate is above 85%). In addition, in the assay with Setaria viridis, the “weeding effect in post-emergence stage, activity level (growth control rate), Setaria viridis” value (from here on “weeding effect … Setaria viridis”) is on record as 5 (Level 5: growth control rate is above 85%).

In the case of `C#CC[S@@+]([O-])c1c(C(F)(F)F)ccc(C(=O)Nc2nnc(C)o2)c1SC` [Compound 553], the “weeding effect … Abutilon theophrasti” value in the assay with Abutilon theophrasti is recorded as 5 (Level 5: growth control rate is above 85%). The “weeding effect … Amaranthus retroflexus” value with Amaranthus retroflexus is listed as 5 (Level 5: growth control rate is above 85%). Besides, in the assay on Digitaria sanguinalis, the “weeding effect … Digitaria sanguinalis” value is 5 (Level 5: growth control rate is above 85%). For the same compound, the “weeding effect … Echinochloa crusgali” value in the assay with Echinochloa crusgali is on record as 5 (Level 5: growth control rate is above 85%). Besides, in the assay with Setaria viridis, the “weeding effect … Setaria viridis” value is listed as 5 (Level 5: growth control rate is above 85%).

As for `COc1c(C(=O)Nc2nnc(C)o2)ccc(C(F)(F)F)c1[S@+]([O-])CCCCl` [Compound 333], the “weeding effect … Abutilon theophrasti” value in the assay on Abutilon theophrasti was 5 (Level 5: growth control rate is above 85%). Besides, in the assay on Amaranthus retroflexus, the “weeding effect … Amaranthus retroflexus” value is 5 (Level 5: growth control rate is above 85%). Moreover, in the assay with Digitaria sanguinalis, the “weeding effect … Digitaria sanguinalis” value is 5 (Level 5: growth control rate is above 85%). For the same compound, in the assay on Echinochloa crusgali, the “weeding effect … Echinochloa crusgali” value is on record as 5 (Level 5: growth control rate is above 85%). In addition, the “weeding effect … Setaria viridis” value in the assay with Setaria viridis is reported as 5 (Level 5: growth control rate is above 85%).

With `COc1c(C(=O)Nc2nnc(C)o2)ccc(C(F)(F)F)c1[S@+]([O-])CCCC(F)(F)F` [Compound 326], the “weeding effect … Abutilon theophrasti” value in the assay with Abutilon theophrasti was 5 (Level 5: growth control rate is above 85%). The “weeding effect … Amaranthus retroflexus” value with Amaranthus retroflexus is 5 (Level 5: growth control rate is above 85%). For the same compound, the “weeding effect … Digitaria sanguinalis” value with Digitaria sanguinalis is 5 (Level 5: growth control rate is above 85%). For the same compound, the “weeding effect … Echinochloa crusgali” value in the assay on Echinochloa crusgali is 5 (Level 5: growth control rate is above 85%). In addition, the “weeding effect … Setaria viridis” value with Setaria viridis is 5 (Level 5: growth control rate is above 85%).

Take `CCC[S@@+]([O-])c1c(C(F)(F)F)ccc(C(=O)Nc2nnc(C(C)C)o2)c1F` [Compound 359]: the “weeding effect … Abutilon theophrasti” value with Abutilon theophrasti is 5 (Level 5: growth control rate is above 85%). For the same compound, the “weeding effect … Amaranthus retroflexus” value in the assay with Amaranthus retroflexus is listed as 5 (Level 5: growth control rate is above 85%). In addition, the “weeding effect … Digitaria sanguinalis” value in the assay on Digitaria sanguinalis was 5 (Level 5: growth control rate is above 85%). In addition, the “weeding effect … Echinochloa crusgali” value with Echinochloa crusgali is reported as 5 (Level 5: growth control rate is above 85%). For the same compound, the “weeding effect … Setaria viridis” value in the assay with Setaria viridis was 5 (Level 5: growth control rate is above 85%).

Consider `COc1c(C(=O)Nc2nnc(C)o2)ccc(C(F)(F)F)c1[S@+]([O-])CCC#N` [Compound 338], for which, in the assay on Abutilon theophrasti, the “weeding effect … Abutilon theophrasti” value is recorded as 5 (Level 5: growth control rate is above 85%). Besides, the “weeding effect … Amaranthus retroflexus” value in the assay with Amaranthus retroflexus is given as 5 (Level 5: growth control rate is above 85%). Besides, the “weeding effect … Digitaria sanguinalis” value in the assay on Digitaria sanguinalis is recorded as 5 (Level 5: growth control rate is above 85%). Besides, the “weeding effect … Echinochloa crusgali” value in the assay with Echinochloa crusgali is 5 (Level 5: growth control rate is above 85%). Further, the “weeding effect … Setaria viridis” value in the assay on Setaria viridis is 5 (Level 5: growth control rate is above 85%).

`CCC(=O)[S+]([O-])c1c(C(F)(F)F)ccc(C(=O)Nc2nnc(C)o2)c1F` (stereo not shown) [Compound 167]: the “weeding effect … Abutilon theophrasti” value with Abutilon theophrasti is on record as 5 (Level 5: growth control rate is above 85%). In addition, the “weeding effect … Amaranthus retroflexus” value with Amaranthus retroflexus is 5 (Level 5: growth control rate is above 85%). The “weeding effect … Digitaria sanguinalis” value in the assay on Digitaria sanguinalis is reported as 5 (Level 5: growth control rate is above 85%). Moreover, the “weeding effect … Echinochloa crusgali” value in the assay with Echinochloa crusgali was 5 (Level 5: growth control rate is above 85%). Moreover, the “weeding effect … Setaria viridis” value in the assay with Setaria viridis is given as 5 (Level 5: growth control rate is above 85%).

As to `COCC[S@@+]([O-])c1c(C(F)(F)F)ccc(C(=O)Nc2nnc(C)o2)c1F` [Compound 72], the “weeding effect … Abutilon theophrasti” value in the assay with Abutilon theophrasti is recorded as 5 (Level 5: growth control rate is above 85%). The “weeding effect … Amaranthus retroflexus” value in the assay with Amaranthus retroflexus is 5 (Level 5: growth control rate is above 85%). For the same compound, the “weeding effect … Digitaria sanguinalis” value in the assay on Digitaria sanguinalis is on record as 5 (Level 5: growth control rate is above 85%). Also, the “weeding effect … Echinochloa crusgali” value with Echinochloa crusgali is 5 (Level 5: growth control rate is above 85%). Further, in the assay on Setaria viridis, the “weeding effect … Setaria viridis” value is 5 (Level 5: growth control rate is above 85%).

For `COc1c(C(=O)Nc2nnc(C)o2)ccc(C(F)(F)F)c1[S@+]([O-])CCC(F)(C(F)(F)F)C(F)(F)F` [Compound 331], the “weeding effect … Abutilon theophrasti” value with Abutilon theophrasti is 5 (Level 5: growth control rate is above 85%). Also, the “weeding effect … Amaranthus retroflexus” value in the assay with Amaranthus retroflexus is recorded as 5 (Level 5: growth control rate is above 85%). Also, the “weeding effect … Digitaria sanguinalis” value in the assay with Digitaria sanguinalis is 5 (Level 5: growth control rate is above 85%). In the assay on Echinochloa crusgali, the “weeding effect … Echinochloa crusgali” value is listed as 5 (Level 5: growth control rate is above 85%). Further, the “weeding effect … Setaria viridis” value in the assay with Setaria viridis was 5 (Level 5: growth control rate is above 85%).

In the case of `COCC[S@@+]([O-])c1c(C(F)(F)F)ccc(C(=O)Nc2nnco2)c1F` [Compound 582], the “weeding effect … Abutilon theophrasti” value in the assay on Abutilon theophrasti is recorded as 5 (Level 5: growth control rate is above 85%). Further, in the assay with Amaranthus retroflexus, the “weeding effect … Amaranthus retroflexus” value is 5 (Level 5: growth control rate is above 85%). In addition, the “weeding effect … Digitaria sanguinalis” value in the assay with Digitaria sanguinalis is recorded as 5 (Level 5: growth control rate is above 85%). Moreover, the “weeding effect … Echinochloa crusgali” value with Echinochloa crusgali is 5 (Level 5: growth control rate is above 85%). For the same compound, the “weeding effect … Setaria viridis” value with Setaria viridis was 5 (Level 5: growth control rate is above 85%).

As to `CC[S@@+]([O-])c1c(C(F)(F)F)ccc(C(=O)Nc2nnnn2C)c1OC` [Compound 445], the “weeding effect … Abutilon theophrasti” value in the assay on Abutilon theophrasti is recorded as 5 (Level 5: growth control rate is above 85%). Further, the “weeding effect … Amaranthus retroflexus” value with Amaranthus retroflexus is recorded as 5 (Level 5: growth control rate is above 85%). For the same compound, the “weeding effect … Digitaria sanguinalis” value with Digitaria sanguinalis is 5 (Level 5: growth control rate is above 85%). In addition, in the assay on Echinochloa crusgali, the “weeding effect … Echinochloa crusgali” value is 5 (Level 5: growth control rate is above 85%). For the same compound, the “weeding effect … Setaria viridis” value with Setaria viridis is 5 (Level 5: growth control rate is above 85%).

On to `CCCCOc1c(C(=O)Nc2nnc(C)o2)ccc(C(F)(F)F)c1[S@+]([O-])CCC` [Compound 535], for which the “weeding effect … Abutilon theophrasti” value with Abutilon theophrasti was 5 (Level 5: growth control rate is above 85%). Also, the “weeding effect … Amaranthus retroflexus” value with Amaranthus retroflexus was 5 (Level 5: growth control rate is above 85%). The “weeding effect … Digitaria sanguinalis” value in the assay on Digitaria sanguinalis is listed as 5 (Level 5: growth control rate is above 85%). In addition, in the assay with Echinochloa crusgali, the “weeding effect … Echinochloa crusgali” value was 5 (Level 5: growth control rate is above 85%). For the same compound, the “weeding effect … Setaria viridis” value with Setaria viridis is on record as 5 (Level 5: growth control rate is above 85%).

Turning to `Cc1nnc(NC(=O)c2ccc(C(F)(F)F)c([S@+]([O-])CCOC(F)(F)F)c2F)o1` [Compound 165], the “weeding effect … Abutilon theophrasti” value with Abutilon theophrasti is listed as 5 (Level 5: growth control rate is above 85%). Besides, in the assay on Amaranthus retroflexus, the “weeding effect … Amaranthus retroflexus” value is reported as 5 (Level 5: growth control rate is above 85%). The “weeding effect … Digitaria sanguinalis” value with Digitaria sanguinalis is recorded as 5 (Level 5: growth control rate is above 85%). Further, in the assay on Echinochloa crusgali, the “weeding effect … Echinochloa crusgali” value is 5 (Level 5: growth control rate is above 85%). The “weeding effect … Setaria viridis” value in the assay on Setaria viridis is listed as 5 (Level 5: growth control rate is above 85%).

Consider `CCn1nnnc1NC(=O)c1ccc(C(F)(F)F)c([S@+]([O-])CC)c1OC` [Compound 446], for which, in the assay with Abutilon theophrasti, the “weeding effect … Abutilon theophrasti” value is given as 5 (Level 5: growth control rate is above 85%). In addition, in the assay on Amaranthus retroflexus, the “weeding effect … Amaranthus retroflexus” value is reported as 5 (Level 5: growth control rate is above 85%). For the same compound, the “weeding effect … Digitaria sanguinalis” value in the assay on Digitaria sanguinalis is 5 (Level 5: growth control rate is above 85%). Further, the “weeding effect … Echinochloa crusgali” value in the assay with Echinochloa crusgali is 5 (Level 5: growth control rate is above 85%). Also, the “weeding effect … Setaria viridis” value in the assay with Setaria viridis was 5 (Level 5: growth control rate is above 85%).
